Data on two molecules can be found in ChEMBL document CHEMBL1158639, “Synthesis and in vivo evaluation of [11C]MPTQ: a potential PET tracer for alpha2A-adrenergic receptors” (Bioorg Med Chem Lett, 2010).

The target of series [1] is Sodium-dependent serotonin transporter (Homo sapiens, UniProt P31645). In words: Displacement of [3H]paroxetine from 5HTT receptor. (In general: Loss of bound radioactivity is the signal in a displacement assay; it reports binding, not function.)
In series [2] the target is T1, Alpha-2C adrenergic receptor (Homo sapiens, UniProt P18825).
T1 sequence (P18825 whole entry): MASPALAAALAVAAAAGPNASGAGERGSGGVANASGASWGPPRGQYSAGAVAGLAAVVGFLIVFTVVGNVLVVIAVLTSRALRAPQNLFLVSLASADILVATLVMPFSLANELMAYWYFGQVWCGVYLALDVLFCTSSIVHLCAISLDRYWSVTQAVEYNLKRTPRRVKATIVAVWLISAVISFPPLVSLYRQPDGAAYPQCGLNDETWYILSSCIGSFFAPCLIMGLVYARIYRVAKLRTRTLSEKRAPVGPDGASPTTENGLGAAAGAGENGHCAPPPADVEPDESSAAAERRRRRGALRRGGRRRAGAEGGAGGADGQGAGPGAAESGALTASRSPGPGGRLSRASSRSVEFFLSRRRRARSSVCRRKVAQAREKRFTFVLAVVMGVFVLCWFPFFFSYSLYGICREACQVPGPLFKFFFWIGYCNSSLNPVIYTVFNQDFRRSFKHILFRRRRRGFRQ
In words: Displacement of [3H]rauwolscine from adrenergic Alpha-2C receptor.

Series [3] in a line: Metabolic stability in baboon brain assessed as compound remaining at 4.43 mCi after 30 mins. Format: ADME, tissue-based. The following applies: papio anubis, read-out: Stability.
Series [4] can be described thus: Metabolic stability in baboon brain assessed as compound remaining at 4.43 mCi after 90 mins. The following applies: papio anubis, read-out: Stability. Format: ADME, tissue-based.

Sequence of Sodium-dependent serotonin transporter (P31645 whole entry): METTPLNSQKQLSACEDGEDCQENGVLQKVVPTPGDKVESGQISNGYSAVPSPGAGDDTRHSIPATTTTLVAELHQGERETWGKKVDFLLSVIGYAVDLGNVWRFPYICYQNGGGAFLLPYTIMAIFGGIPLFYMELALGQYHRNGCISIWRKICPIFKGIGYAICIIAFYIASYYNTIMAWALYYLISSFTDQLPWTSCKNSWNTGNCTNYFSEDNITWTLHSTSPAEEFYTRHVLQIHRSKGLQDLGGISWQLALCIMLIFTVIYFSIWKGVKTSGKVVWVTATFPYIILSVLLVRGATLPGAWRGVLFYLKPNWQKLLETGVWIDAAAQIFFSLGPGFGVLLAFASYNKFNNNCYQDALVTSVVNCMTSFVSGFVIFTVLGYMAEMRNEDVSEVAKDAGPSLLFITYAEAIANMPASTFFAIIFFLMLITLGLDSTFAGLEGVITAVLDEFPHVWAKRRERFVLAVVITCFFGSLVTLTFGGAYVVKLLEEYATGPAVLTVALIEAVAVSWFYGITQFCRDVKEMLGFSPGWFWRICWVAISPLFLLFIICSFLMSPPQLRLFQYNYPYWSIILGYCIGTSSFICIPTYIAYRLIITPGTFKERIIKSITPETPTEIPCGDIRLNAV

In the case of `CN1CC2C(=NO[C@H]2CN2CCN(C/C=C/c3ccccc3)CC2)c2ccccc21` (some centres undefined), the Ki in series [1] is 0.016 µM; in series [2], 0.0045 µM.
Turning to `[11CH3]N1CC2C(=NO[C@H]2CN2CCN(C/C=C/c3ccccc3)CC2)c2ccccc21` (some centres undefined), the remaining at 0.5 h in series [3] turned out to be 35%. In series [4], the remaining at 1.5 h is 21%.

What is called Ki is a dissociation constant, usually derived from enzyme kinetics or from competition with a known ligand.
